The term Ki denotes the dissociation constant of the complex between target and ligand, obtained from inhibition or displacement.

Holding throughout (format): biochemical
The target in assay [1] is T1, JAK3 (Homo sapiens, UniProt P52333).
T1 construct: made in house; host or cells: SF9 insect cells (baculovirus)
Nature of the assay: JAK3 inhibition (Table 4). The conditions noted are these: read-out: JAK3 Ki.

In assay [2] the target is T2, TYK2 (Homo sapiens, UniProt P29597).
T2 construct: made in house; host or cells: SF9 insect cells (baculovirus)
T2 sequence (P29597 873-1187): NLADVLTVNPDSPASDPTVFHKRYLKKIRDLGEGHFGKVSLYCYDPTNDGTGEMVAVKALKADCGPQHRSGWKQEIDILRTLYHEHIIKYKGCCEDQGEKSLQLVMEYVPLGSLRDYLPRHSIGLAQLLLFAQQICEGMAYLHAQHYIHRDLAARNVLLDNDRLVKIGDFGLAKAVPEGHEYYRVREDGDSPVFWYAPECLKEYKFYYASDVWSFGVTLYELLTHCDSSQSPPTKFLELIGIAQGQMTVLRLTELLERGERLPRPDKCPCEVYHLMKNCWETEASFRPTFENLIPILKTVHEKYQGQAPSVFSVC
Kind of assay: TYK2 inhibition (Table 4).

Assay [3] concerns the target T3, JAK2 (Homo sapiens, UniProt O60674).
T3 construct: made in house; host or cells: SF9 insect cells (baculovirus)
Kind of assay: JAK2 inhibition (Table 4). The conditions noted are these: read-out: JAK2 Ki.

In assay [4] the target is T4, JAK1 (Homo sapiens, UniProt P23458).
T4 construct: made in house; host or cells: SF9 insect cells (baculovirus)
Nature of the assay: JAK1 inhibition (Table 4). The following applies: read-out: JAK1 Ki.

T3 sequence (O60674 812-1132): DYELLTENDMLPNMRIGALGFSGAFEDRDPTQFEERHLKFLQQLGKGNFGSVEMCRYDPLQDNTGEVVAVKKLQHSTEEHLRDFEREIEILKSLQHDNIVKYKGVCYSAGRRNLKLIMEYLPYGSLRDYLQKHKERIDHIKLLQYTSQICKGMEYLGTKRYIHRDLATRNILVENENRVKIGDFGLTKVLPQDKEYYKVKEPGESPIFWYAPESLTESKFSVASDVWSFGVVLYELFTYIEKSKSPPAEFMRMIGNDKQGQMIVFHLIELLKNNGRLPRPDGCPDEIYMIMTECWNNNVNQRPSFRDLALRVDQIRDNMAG
T1 sequence (P52333 783-1124): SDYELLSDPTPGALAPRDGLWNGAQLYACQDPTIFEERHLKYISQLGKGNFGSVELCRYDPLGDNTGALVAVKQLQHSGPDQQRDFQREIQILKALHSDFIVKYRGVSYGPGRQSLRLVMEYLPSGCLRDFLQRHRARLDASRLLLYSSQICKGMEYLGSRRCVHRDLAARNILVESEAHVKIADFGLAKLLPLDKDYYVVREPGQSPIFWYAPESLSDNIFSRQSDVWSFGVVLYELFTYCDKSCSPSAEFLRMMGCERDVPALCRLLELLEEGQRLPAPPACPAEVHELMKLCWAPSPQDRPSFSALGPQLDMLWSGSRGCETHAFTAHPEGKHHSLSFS
T4 sequence (P23458 852-1154): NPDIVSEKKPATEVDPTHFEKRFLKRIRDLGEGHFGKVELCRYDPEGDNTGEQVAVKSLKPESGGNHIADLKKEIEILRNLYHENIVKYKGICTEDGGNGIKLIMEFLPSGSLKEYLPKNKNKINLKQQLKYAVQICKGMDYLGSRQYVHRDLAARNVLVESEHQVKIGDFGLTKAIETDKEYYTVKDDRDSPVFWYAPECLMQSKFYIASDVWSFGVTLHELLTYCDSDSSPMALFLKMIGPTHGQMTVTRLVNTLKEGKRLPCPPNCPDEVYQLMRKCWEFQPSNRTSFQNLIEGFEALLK

`O=C(Cc1nc2cnc3[nH]ccc3c2n1C1CCN(Cc2ccccc2)CC1)N1CCC(F)(F)CC1` [Example 217, 2-[1-(1-Benzyl-piperidin-4-yl)-1,6-dihydro-1,3,5,6-tetraaza-as-indacen-2-yl)-1-(4,4-difluoro-piperidin-1-yl)-ethanone]: the inhibitory constant (Ki) in assay [1] was found to be 6.79 nM; in assay [2], 608 nM; in assay [3], 48.7 nM; in assay [4], 3.6 nM.
As for `N#Cc1cccc(CN2CCC(n3c(CC(=O)N4CCC(F)(F)CC4)nc4cnc5[nH]ccc5c43)CC2)n1` [Example 309], the Ki in assay [1] turned out to be 93.4 nM; in assay [2], 1940 nM; in assay [3], 295 nM; in assay [4] it was 52 nM.
For `COCC(=O)NC1CCCC(n2cnc3cnc4[nH]ccc4c32)C1` (single isomer, unassigned) [Example 480, 2-Methoxy-N-[3-(6H-1,3,5,6-tetraaza-as-indacen-1-yl)-cyclohexyl]-acetamide], the Ki stood at 563 nM in assay [1], 1100 nM in assay [2], 179 nM in assay [3] and 264 nM in assay [4].
Taken in the same sequence, the figures for `Cc1n[nH]c(C)c1CCc1nc2cnc3[nH]ccc3c2n1C1CCOCC1` [Example 471, 2-[2-(3,5-Dimethyl-1H-pyrazol-4-yl)-ethyl]-1-(tetrahydro-pyran-4-yl)-1,6-dihydro-1,3,5,6-tetraaza-as-indacene] were 727 nM, 793 nM, 781 nM and 278 nM.
The corresponding values for `CC(O)c1nc2cnc3[nH]ccc3c2n1C1CC2CCC1O2` (single isomer, unassigned) [Example 936, (endo)-1-[1-(7-Oxa-bicyclo[2.2.1]hept-2-yl)-1,6-dihydro-1,3,5,6-tetraaza-as-indacen-2-yl]-ethanol] are 334 nM, 215 nM, 403 nM and 79.8 nM.
Regarding `c1cc2c(ncc3ncn(C4CCCCNC4)c32)[nH]1` (single isomer, unassigned) [Example 110a, 1-Azepan-3-yl-1,6-dihydro-1,2,3,5,6-tetraaza-as-indacene], the Ki in assay [1] was determined as 194 nM; in assay [2], 106 nM; in assay [3], 81.8 nM; in assay [4] it was 13.6 nM.
On to `O=C(O)C1CC1C(O)c1nc2cnc3[nH]ccc3c2n1C1CCCCC1` (racemic) [Example 942, 2-[(1-Cyclohexyl-1,6-dihydro-1,3,5,6-tetraaza-as-indacen-2-yl)-hydroxy-methyl]-cyclopropanecarboxylic acid], for which the Ki in assay [1] came to 94.1 nM; in assay [2] it was 30.5 nM; in assay [3], 200 nM; in assay [4], 5.09 nM.
As for `CC(C)(C)OC(=O)N[C@@H]1CC[C@@H](n2nnc3cnc4[nH]ccc4c32)C1` [Example 727, [(1R,3R)-3-(6H-1,2,3,5,6-Pentaaza-as-indacen-1-yl)-cyclopentyl]-carbamic acid tert-butyl ester], the Ki was 74.4 nM in assay [1], 143 nM in assay [2], 7.73 nM in assay [3] and 1.76 nM in assay [4].
Consider `Cc1nn(C)cc1S(=O)(=O)N1CCC(n2cnc3cnc4[nH]ccc4c32)CC1` [Example 448, 1-[1-(1,3-Dimethyl-1H-pyrazole-4-sulfonyl)-piperidin-4-yl]-1,6-dihydro-1,3,5,6-tetraaza-as-indacene], for which the Ki in assay [1] amounted to 873 nM; in assay [2], 268 nM; in assay [3], 35.7 nM; in assay [4], 34.4 nM.
With `OCc1nc2cnc3[nH]ccc3c2n1C1CCCOC1` (single isomer, unassigned) [Example 464, [1-(Tetrahydro-pyran-3-yl)-1,6-dihydro-1,3,5,6-tetraaza-as-indacen-2-yl]-methanol], the Ki turned out to be 412 nM in assay [1], 187 nM in assay [2], 224 nM in assay [3] and 56.9 nM in assay [4].
With `C[C@@H](O)c1nc2cnc3[nH]ccc3c2n1[C@@H]1CCCN(C(=O)CC(F)(F)F)C1` [Example 785, 3,3,3-Trifluoro-1-{(R)-3-[2-((R)-1-hydroxy-ethyl)-6H-1,3,5,6-tetraaza-as-indacen-1-yl]-piperidin-1-yl}-propan-1-one], the Ki in assay [1] turned out to be 566 nM; in assay [2] it was 278 nM; in assay [3], 373 nM; in assay [4], 31.9 nM.
Turning to `CC1CNCCC1n1cnc2cnc3[nH]ccc3c21` (racemic) [Example 306, 1-(3-Methyl-piperidin-4-yl)-1,6-dihydro-1,3,5,6-tetraaza-as-indacene], the Ki was 468 nM in assay [1], 449 nM in assay [2], 156 nM in assay [3] and 34.9 nM in assay [4].
In the case of `CC(O)c1nc2cnc3[nH]ccc3c2n1CC1CCCO1` (stereo not drawn) [Example 700, 1-[1-(Tetrahydro-furan-2-ylmethyl)-1,6-dihydro-1,2,3,5,6-tetraaza-as-indacen-2-yl]-ethanol], the Ki worked out at 546 nM in assay [1], 1430 nM in assay [2], 617 nM in assay [3] and 478 nM in assay [4].
As for `C[C@@H](O)c1nc2cnc3[nH]cc(Br)c3c2n1C1CCC(CC#N)CC1` (stereo partly drawn) [Example 1010, {4-[8-Bromo-2-((R)-1-hydroxy-ethyl)-6H-1,3,5,6-tetraaza-as-indacen-1-yl]-cyclohexyl}-acetonitrile], the inhibitory constant (Ki) in assay [1] turned out to be 0.33 nM; in assay [2] it was 2.2 nM; in assay [3] it was 1.66 nM; in assay [4] it was 1.12 nM.
For the compound `N#Cc1cccc(S(=O)(=O)N2CC[C@@H](n3cnc4cnc5[nH]ccc5c43)C2)c1` [Example 434, 3-[(R)-3-(6H-1,3,5,6-Tetraaza-as-indacen-1-yl)-pyrrolidine-1-sulfonyl]-benzonitrile], the Ki was 1200 nM in assay [1], 32.5 nM in assay [2], 6.22 nM in assay [3] and 5.67 nM in assay [4].
As for `CN1CCC(NC(=O)Cc2nc3cnc4[nH]ccc4c3n2C2CCCOC2)CC1` (racemic) [Example 981, N-(1-Methyl-piperidin-4-yl)-2-[1-(tetrahydro-pyran-3-yl)-1,6-dihydro-1,3,5,6-tetraaza-as-indacen-2-yl]-acetamide], the Ki was 162 nM in assay [1], 376 nM in assay [2], 177 nM in assay [3] and 66 nM in assay [4].
The corresponding values for `c1ccc(N2CCC[C@@H](n3cnc4cnc5[nH]ccc5c43)C2)cc1` [Example 12, 1-((R)-1-Phenyl-piperidin-3-yl)-1,6-dihydro-1,2,3,5,6-tetraaza-as-indacene] are 17.2 nM, 170 nM, 35.7 nM and 31 nM.
Regarding `C[C@@H](O)c1nc2cnc3[nH]ccc3c2n1C1CCC(NCC(F)(F)F)CC1` (stereo partly drawn) [Example 1009, (R)-1-{1-[4-(2,2,2-Trifluoro-ethylamino)-cyclohexyl]-1,6-dihydro-1,3,5,6-tetraaza-as-indacen-2-yl}-ethanol], the inhibitory constant (Ki) in assay [1] amounted to 44 nM; in assay [2], 75.5 nM; in assay [3], 116 nM; in assay [4], 59.5 nM.
For the compound `C[C@@H](O)c1nc2cnc3[nH]ccc3c2n1C1CCC(CC#N)CC1` (stereo partly drawn) [Example 1001, {4-[2-((R)-1-Hydroxy-ethyl)-6H-1,3,5,6-tetraaza-as-indacen-1-yl]-cyclohexyl}-acetonitrile], the Ki is 16.7 nM in assay [1], 2.22 nM in assay [2], 13 nM in assay [3] and 1.15 nM in assay [4].
On to `C[C@@H](O)c1nc2cnc3[nH]ccc3c2n1[C@H]1CC[C@@H](n2cncn2)CC1` [Example 653, Cis (R)-1-[1-(4-[1,2,4]triazol-1-yl-cyclohexyl)-1,6-dihydro-1,2,3,5,6-tetraaza-as-indacen-2-yl]-ethanol], for which the Ki worked out at 1.31 nM in assay [1], 5.28 nM in assay [2], 24.7 nM in assay [3] and 0.88 nM in assay [4].
Taken in the same sequence, the figures for `O[C@H]1CC[C@H](n2cnc3cnc4[nH]ccc4c32)C1` [Example 712, (1S,3S)-3-(6H-1,2,3,5,6-Tetraaza-as-indacen-1-yl)-cyclopentanol] were 29.7 nM, 114 nM, 44.9 nM and 15.3 nM.
Take `c1cc(N2CCC[C@@H](n3cnc4cnc5[nH]ccc5c43)C2)ncn1` [Example 14, 1-((R)-1-Pyrimidin-4-yl-piperidin-3-yl)-1,6-dihydro-1,2,3,5,6-tetraaza-as-indacene]: the inhibitory constant (Ki) turned out to be 26.5 nM in assay [1], 85.6 nM in assay [2], 13.6 nM in assay [3] and 11.4 nM in assay [4].
Turning to `N#CCC[C@H]1CC[C@H](n2c(CO)nc3cnc4[nH]ccc4c32)CC1` [Example 646, 3-[4-(2-hydroxymethyl-6H-1,2,3,5,6-tetraaza-as-indacen-1-yl)-cyclohexyl]-propionitrile], the Ki amounted to 9.11 nM in assay [1], 1.49 nM in assay [2], 2.05 nM in assay [3] and 0.53 nM in assay [4].
The corresponding values for `CCNC(=O)Cc1nc2cnc3[nH]ccc3c2n1C1CCCOC1` (racemic) [Example 962, N-Ethyl-2-[1-(tetrahydro-pyran-3-yl)-1,6-dihydro-1,3,5,6-tetraaza-as-indacen-2-yl]-acetamide] are 177 nM, 399 nM, 208 nM and 35.8 nM.

These data come from US8461328B2, “Tricyclic heterocyclic compounds, compositions and methods of use thereof” (Genentech, Inc., priority 2010, dated 2013).
